In brackets after ≈: the same amount, converted by molar mass. Like-named read-outs stand apart in the source and are kept apart here.

Usually MIC stands for the smallest concentration in the dilution series that meets the test's criterion for growth inhibition. For orientation: IC50 means the concentration that inhibits the measured activity by half.

One data set has as its system C. difficile spores. Put plainly: Spore viability testing. The class given is cell-based. The settings on record: for Effect on viability of C. difficile spores (CFU): x2 MIC, 24 hours; for Inhibition of spore germination: x5 MIC.
The subject of the next data set is C. difficile ATCC43596. Put plainly: Minimum inhibitory concentration assay. Conditions: for MIC: Clostridioides difficile, ATCC43596, 48 h, read-out: C. difficile ATCC43596 MIC; for C. difficile ATCC43596 MIC: 48 h, 37° C.
The next data set has as its system Vero cells. Nature of the data set: Cytotoxicity MTT assay, Vero cells. It counts as cell-based, monkey. The procedure:
(§1) Cytotoxicity Assays. Cytotoxicity assays were performed using Vero monkey kidney (ATCC CCL-81) and HepG2 human hepatoblastoma cell (ATCC HB-8065) lines. Vero or HepG2 cells were cultured in 75 cm^2 flasks and transferred to 96-well cell culture plates using ATCC-formulated Eagle's minimum essential medium containing 10% FBS, penicillin, and streptomycin. Serially diluted aliquots of each test compound at concentrations ranging from 0.78-200 μg/mL were added to the cells. […] The plates were incubated and cytotoxic effects were determined via the MTT assay.
(§2) Selected molecules were tested for cytotoxicity (IC50) in cancer and healthy cells via a MTT colorimetric assay.
(§3) Cytotoxicity Assays. For Vero cells: Vero cell was cultured in Complete eagle's minimum essential growth medium (EMEM) containing L-glutamine, sodium pyruvate, minimum essential amino acids, penicillin-streptomycin and 10% fetal bovine serum. Inoculating number of cells were 400,000 cells/mL and a final 40,000 cells/well. After 72 h of exposure of molecules to this cell line at concentrations ranging from 0.78 to 200 μg/mL, the culture medium was changed to complete EMEM without phenol red before addition of yellow tetrazolium dye; MTT. Viability was assessed on the basis of cellular conversion of MTT into a purple formazan product. The absorbance of the colored formazan product was measured at 570 nm by BioTek Synergy HT Spectrophotometer. Linearity of the MTT response to the cell number was determined.

The next data set in a line: Hemolysis, sheep blood. It counts as cell-based. The settings on record: sheep, sheep blood.
In a further data set the test system is MraY. Conditions: read-out: MraY inhibition IC50.
The test system of data set [1] is AsPc-1 cells. Put plainly: Synergistic assay (checkerboard), 11 and Gemcitabine. It counts as cell-based. The protocol: (§4) The FIC index was calculated according to the following equation. ΣFIC=FICA+FICB=CA/MICA+CB/MICB where MICA and MICB are MIC of drugs A and B, CA and CB are the concentrations of drugs A and B used in combination. In these interaction studies, ΣFIC of less than 0.5 represents synergistic activity.
These experiments were performed in the same manner as those of Example 7.

A short description of data set [2]: Cytotoxicity MTT assay, Vero cells. Conditions: monkey. It counts as cell-based, monkey. The protocol:
as §1, §2, §3
For orientation: Tetrazolium dyes change colour on reduction, which living cells bring about.

Another data set deals with L12210. Nature of the data set: Cytotoxicity MTT assay, L12210. It counts as cell-based. The procedure: as §2
(§5) Each cell was cultured in recommended medium by ATCC, and the IC50 data were obtained with each cell line.

The test system of a further data set is KB. Put plainly: Cytotoxicity MTT assay, KB. The class given is cell-based. The procedure: as §2, §5
The next data set relates to LoVo. Put plainly: Cytotoxicity MTT assay, LoVo. The class given is cell-based. The procedure: as §2, §5
A further data set concerns SK-OV-3. Nature of the data set: Cytotoxicity MTT assay, SK-OV-3. The class given is cell-based. The procedure:
as §2, §5

The subject of another data set is MDA-MB-435S. Put plainly: Cytotoxicity MTT assay, MDA-MB-435S. The class given is cell-based. The procedure:
as §2, §5

For the next data set, the system named is AsPc-1. Put plainly: Cytotoxicity MTT assay, AsPc-1. It counts as cell-based. The protocol: as §2, §5
For the next data set, the system named is Panc-1. Put plainly: Cytotoxicity MTT assay, Panc-1. It counts as cell-based. The procedure: as §2, §5
In the next data set the test system is HPAF-II. Put plainly: Cytotoxicity MTT assay, HPAF-II. The class given is cell-based. The protocol:
as §2, §5

Data set [3] relates to AsPc-1 cells. Nature of the data set: Synergistic assay (checkerboard), 11 and Paclitaxel. It counts as cell-based. The procedure:
as §4

For another data set, the system named is HepG2. Put plainly: Cytotoxicity MTT assay, HepG2. It counts as cell-based. Conditions: human.
The subject of a further data set is Caco-2. Put plainly: Cytotoxicity MTT assay, Caco-2. It counts as cell-based. Conditions: human. The protocol:
as §2, §5

The target in a further data set is M. jannaschii AgIH (Methanocaldococcus jannaschii (strain ATCC 43067 / DSM 2661 / JAL-1 / JCM 10045 / NBRC 100440) (Methanococcus jannaschii), UniProt Q58513). The settings on record: read-out: AgIH inhibition IC50, M. jannaschii AgIH.
Sequence of M. jannaschii AgIH (Q58513 whole entry, looked up): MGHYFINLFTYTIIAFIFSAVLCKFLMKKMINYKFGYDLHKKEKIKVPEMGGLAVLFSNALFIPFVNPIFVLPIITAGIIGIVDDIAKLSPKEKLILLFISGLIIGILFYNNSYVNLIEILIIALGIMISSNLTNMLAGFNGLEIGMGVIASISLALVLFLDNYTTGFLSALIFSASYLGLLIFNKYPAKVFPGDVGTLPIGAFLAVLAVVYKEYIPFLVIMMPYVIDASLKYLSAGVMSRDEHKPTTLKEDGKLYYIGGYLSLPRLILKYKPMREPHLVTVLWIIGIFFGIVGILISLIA

Consider `CCCCCCCc1ccc(NC(=O)CCCN(C)[C@H](C(N)=O)[C@H](OC2O[C@H](CN)[C@@H](O)[C@H]2O)[C@H]2O[C@@H](n3ccc(=O)[nH]c3=O)C(O)[C@H]2O)cc1` (stereo partly drawn) [Compound 9], for which the “Effect on viability of C. difficile spores (CFU)” value in the data set with C. difficile spores is reported as “caused loss of viability of C. difficile spores”. Further, in the data set with C. difficile ATCC43596, the Anti-C. difficile activity entry is reported as “display anti-C. difficile activity” and the MIC turned out to be 25 µg/mL (≈ 34.7 µM).
With `CCCCCCCc1ccc(NC(=O)CCCN[C@H](C(N)=O)[C@H](OC2O[C@H](CN)[C@@H](O)[C@H]2O)[C@H]2O[C@@H](n3ccc(=O)[nH]c3=O)C(O)[C@H]2O)cc1` (stereo partly drawn) [Compound 10], the “Effect on viability of C. difficile spores (CFU)” value in the data set with C. difficile spores is given as “caused loss of viability of C. difficile spores”. The IC50 in the data set on Vero cells (Primates, Vero, Table 2, read-out: Vero cells IC50) is 7080 nM; in the data set “Hemolysis, sheep blood”, 70000 nM. In addition, the Anti-C. difficile activity entry in the data set with C. difficile ATCC43596 is “display anti-C. difficile activity”.
With `CN(CCCC(=O)NCc1ccc(N2CCC(Oc3ccc(C(F)(F)F)cc3)CC2)cc1)[C@H](C(N)=O)[C@H](O[C@@H]1O[C@H](CN)[C@@H](O)[C@H]1O)[C@H]1O[C@@H](n2ccc(=O)[nH]c2=O)[C@H](O)C1O` (stereo partly drawn) [Compound 12], in the data set with C. difficile ATCC43596, the Anti-C. difficile activity entry was “display anti-C. difficile activity” and the MIC was determined as 50 µg/mL (≈ 56.8 µM).
As to `CN(CCCN)[C@H](C(=O)O)[C@H](O[C@@H]1O[C@H](CN)[C@@H](O)[C@H]1O)[C@H]1O[C@@H](n2ccc(=O)[nH]c2=O)[C@H](O)[C@@H]1O` [FR-900493 (1), FR-900493, reference compound], in the data set with MraY, the half-inhibitory concentration (IC50) stood at 25000 nM. In addition, in the data set on C. difficile ATCC43596, the “C. difficile ATCC43596 MIC” value is greater than 50 µg/mL.
`Nc1ccn([C@@H]2O[C@H](CO)[C@@H](O)C2(F)F)c(=O)n1` [Gemcitabine, reference compound]: in the data set with AsPc-1 cells [1] (Homo sapiens, ASPC1, Gemcitabine alone, AsPc-1 cells, read-out: IC50 B), the 50% inhibitory concentration (IC50) came out at 390 nM. The “Concentration in combination resulting in AsPc-1 cell death” value with AsPc-1 cells [1] (as low as, 11 together with Gemcitabine) was found to be 0.977 µM.
As to `CC(=O)O[C@H]1C(=O)[C@@]2(C)[C@H]([C@H](OC(=O)c3ccccc3)[C@]3(O)C[C@H](OC(=O)[C@H](O)[C@@H](NC(=O)c4ccccc4)c4ccccc4)C(C)=C1C3(C)C)[C@]1(OC(C)=O)CO[C@@H]1C[C@@H]2O` [Taxol, Paclitaxel], in data set [2], the half-inhibitory concentration (IC50) at 72 h worked out at 190 nM. For the same compound, the half-maximal inhibitory concentration (IC50) is 550 nM in the data set with L12210 (read-out: Cytotoxicity IC50 L12210); 790 nM in the data set with KB (Homo sapiens, KB, read-out: Cytotoxicity IC50 KB); 57 nM in the data set on LoVo (Homo sapiens, LoVo, read-out: Cytotoxicity IC50 LoVo); 1080 nM in the data set with SK-OV-3 (Homo sapiens, SK-OV-3, read-out: Cytotoxicity IC50 SK-OV-3); 110 nM in the data set on MDA-MB-435S (Homo sapiens, MDA-MB-435S, read-out: Cytotoxicity IC50 MDA-MB-435S); 190 nM in the data set on AsPc-1 (Homo sapiens, ASPC1, read-out: Cytotoxicity IC50 AsPc-1). Further, the IC50 with Panc-1 (Homo sapiens, PANC-1, read-out: Cytotoxicity IC50 Panc-1) was determined as 20 nM; in the data set on HPAF-II (Homo sapiens, HPAF-II, read-out: Cytotoxicity IC50 HPAF-II), 20 nM; in the data set with AsPc-1 cells [3] (Homo sapiens, ASPC1, Paclitaxel alone, AsPc-1 cells, read-out: IC50 B), 550 nM. For the same compound, in the data set on AsPc-1 cells [3] (as low as, combined with 11), the “Taxol concentration to kill AsPc-1 cells when combined with 11” value turned out to be 7 nM.
In the case of `CC(=O)NC[C@H]1CN(c2ccc(N3CCOCC3)c(F)c2)C(=O)O1` [linezolid, reference compound], in the data set with C. difficile spores, the “Inhibition of spore germination” value is “did not inhibit the spore germination”.
Same read-out and setting: for `Cc1ncc([N+](=O)[O-])n1CCO` [metronidazole, reference compound] the value was “did not inhibit the spore germination”.
For the compound `CN[C@H](CC(C)C)C(=O)N[C@H]1C(=O)N[C@@H](CC(N)=O)C(=O)N[C@H]2C(=O)N[C@H]3C(=O)N[C@H](C(=O)N[C@H](C(=O)O)c4cc(O)cc(O)c4-c4cc3ccc4O)[C@H](O)c3ccc(c(Cl)c3)Oc3cc2cc(c3O[C@@H]2O[C@H](CO)[C@@H](O)[C@H](O)[C@H]2O[C@H]2C[C@](C)(N)[C@H](O)[C@H](C)O2)Oc2ccc(cc2Cl)[C@H]1O` [vancomycin, reference compound], the “Inhibition of spore germination” value in the data set on C. difficile spores is listed as “did not inhibit the spore germination”. The minimum inhibitory concentration (MIC) with C. difficile ATCC43596 stood at 2.5 µg/mL (≈ 1.73 µM).
With Tunicamycin, the 50% inhibitory concentration (IC50) with Vero cells (Table 2, read-out: Vero cells IC50) amounted to 120 nM; in the data set on Vero cells (Table 3, 72 h exposure, read-out: Cytotoxicity IC50 Vero), 120 nM; with L12210 (mouse), 1700 nM; in the data set on KB (human), 2500 nM; in the data set on LoVo (human), 1700 nM; in the data set on SK-OV-3 (human), 1850 nM. For the same compound, the concentration for half-maximal inhibition (IC50) in the data set on MDA-MB-435S (human) was 900 nM; in the data set with AsPc-1 (human) it was 460 nM; with Panc-1 (human) it was 625 nM; with HPAF-II (human), less than 98 nM; in the data set on HepG2, 190 nM; in the data set on Caco-2, 950 nM. Further, the half-maximal inhibitory concentration (IC50) on M. jannaschii AgIH is 13300 nM. Also, the “C. difficile ATCC43596 MIC” value in the data set on C. difficile ATCC43596 was greater than 50 µg/mL.

(Values after patent US20240199677A1, “GLYCOSYLTRANSFERASE INHIBITORS” (CALIFORNIA INSTITUTE OF TECHNOLOGY, priority 2018, published 2024).)
